Measurements taken from PubChem BioAssay (NCI).
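In this assay, cells in 96-well plates receive the compound at five concentrations for 48 hours. Endpoints are linearly interpolated between the surrounding concentrations. GI50: concentration for 50% inhibition of growth. Definition used: TGI = concentration required for complete inhibition of growth.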

Legend:
Assay in all cases: NCI anticancer screen, dose series, 48 h
A498 renal = tested on: A498 renal
ACHN renal = tested on: ACHN renal
CAKI-1 renal = tested on: CAKI-1 renal
CCRF-CEM leukemia = tested on: CCRF-CEM leukemia
COLO 205 colon = tested on: COLO 205 colon
HL-60(TB) leukemia = tested on: HL-60(TB) leukemia
HOP-92 NSCLC = tested on: HOP-92 NSCLC
HS 578T breast = tested on: HS 578T breast
KM12 colon = tested on: KM12 colon
MALME-3M melanoma = tested on: MALME-3M melanoma
MDA-MB-231 breast = tested on: MDA-MB-231 breast
MDA-MB-435 = tested on: MDA-MB-435
MOLT-4 leukemia = tested on: MOLT-4 leukemia
NCI-H226 lung = tested on: NCI-H226 lung
NCI-H460 lung = tested on: NCI-H460 lung
NCI-H522 lung = tested on: NCI-H522 lung
NCI/ADR-RES ovarian = tested on: NCI/ADR-RES ovarian
PC-3 prostate = tested on: PC-3 prostate
RPMI-8226 leukemia = tested on: RPMI-8226 leukemia
SF-539 CNS = tested on: SF-539 CNS
SK-MEL-28 melanoma = tested on: SK-MEL-28 melanoma
SK-MEL-5 melanoma = tested on: SK-MEL-5 melanoma
SK-OV-3 ovarian = tested on: SK-OV-3 ovarian
SN12C renal = tested on: SN12C renal
SNB-19 CNS = tested on: SNB-19 CNS
SNB-75 CNS = tested on: SNB-75 CNS
SR leukemia = tested on: SR leukemia
SW-620 colon = tested on: SW-620 colon
T-47D breast = tested on: T-47D breast
TK-10 renal = tested on: TK-10 renal
UACC-62 melanoma = tested on: UACC-62 melanoma
786-0 renal = tested on: 786-0 renal
A549 NSCLC = tested on: A549 NSCLC
DU-145 prostate = tested on: DU-145 prostate
EKVX NSCLC = tested on: EKVX NSCLC
HCC-2998 colon = tested on: HCC-2998 colon
HCT-116 colon = tested on: HCT-116 colon
HCT-15 colon = tested on: HCT-15 colon
HOP-62 NSCLC = tested on: HOP-62 NSCLC
HT29 colon = tested on: HT29 colon
IGROV1 ovarian = tested on: IGROV1 ovarian
K-562 leukemia = tested on: K-562 leukemia
LOX IMVI melanoma = tested on: LOX IMVI melanoma
M14 melanoma = tested on: M14 melanoma
MCF7 breast = tested on: MCF7 breast
NCI-H23 lung = tested on: NCI-H23 lung
OVCAR-3 ovarian = tested on: OVCAR-3 ovarian
OVCAR-4 ovarian = tested on: OVCAR-4 ovarian
OVCAR-5 ovarian = tested on: OVCAR-5 ovarian
OVCAR-8 ovarian = tested on: OVCAR-8 ovarian
RXF 393 renal = tested on: RXF 393 renal
SF-268 CNS = tested on: SF-268 CNS
SF-295 CNS = tested on: SF-295 CNS
SK-MEL-2 melanoma = tested on: SK-MEL-2 melanoma
U251 CNS = tested on: U251 CNS
UACC-257 melanoma = tested on: UACC-257 melanoma
UO-31 renal = tested on: UO-31 renal

SMILES: CCCc1cn2c(/C=N/N=C(N)N)c(-c3cccc([N+](=O)[O-])c3)nc2s1
- TGI (A498 renal): 33.2 µM
- TGI (ACHN renal): 3.38 µM
- TGI (CAKI-1 renal): 3.83 µM
- TGI (CCRF-CEM leukemia): 2.32 µM
- TGI (COLO 205 colon): 4.35 µM
- TGI (HL-60(TB) leukemia): 4.75 µM
- TGI (HOP-92 NSCLC): 32.4 µM
- TGI (HS 578T breast): 7.51 µM
- TGI (KM12 colon): 3.57 µM
- TGI (MALME-3M melanoma): 2.82 µM
- TGI (MDA-MB-231 breast): 3.04 µM
- TGI (MDA-MB-435): 3.46 µM
- TGI (MOLT-4 leukemia): 2.81 µM
- TGI (NCI-H226 lung): 3.28 µM
- TGI (NCI-H460 lung): 5.37 µM
- TGI (NCI-H522 lung): 4.47 µM
- TGI (NCI/ADR-RES ovarian): 10.5 µM
- TGI (PC-3 prostate): 8.19 µM
- TGI (RPMI-8226 leukemia): 4.36 µM
- TGI (SF-539 CNS): 3.15 µM
- TGI (SK-MEL-28 melanoma): 3.18 µM
- TGI (SK-MEL-5 melanoma): 3.9 µM
- TGI (SK-OV-3 ovarian): 5.3 µM
- TGI (SN12C renal): 2.58 µM
- TGI (SNB-19 CNS): 4.86 µM
- TGI (SNB-75 CNS): 3.1 µM
- TGI (SR leukemia): 3.89 µM
- TGI (SW-620 colon): 8.42 µM
- TGI (T-47D breast): 4.99 µM
- TGI (TK-10 renal): 0.405 µM
- TGI (UACC-62 melanoma): 3.15 µM

SMILES: Oc1ccc(Nc2ccc3ccccc3c2)cc1
- GI50 (786-0 renal): 3.78 µM
- TGI (786-0 renal): 15.5 µM
- GI50 (A498 renal): 4.1 µM
- TGI (A498 renal): 23.2 µM
- GI50 (A549 NSCLC): 4.84 µM
- TGI (A549 NSCLC): 27 µM
- GI50 (ACHN renal): 2.46 µM
- TGI (ACHN renal): 15.6 µM
- GI50 (CAKI-1 renal): 1.52 µM
- TGI (CAKI-1 renal): 5.93 µM
- GI50 (CCRF-CEM leukemia): 7.69 µM
- TGI (CCRF-CEM leukemia): > 100 µM
- GI50 (COLO 205 colon): 17.5 µM
- TGI (COLO 205 colon): 35.4 µM
- GI50 (DU-145 prostate): 4.87 µM
- TGI (DU-145 prostate): 19.2 µM
- GI50 (EKVX NSCLC): 3.66 µM
- TGI (EKVX NSCLC): 20.5 µM
- GI50 (HCC-2998 colon): 4.29 µM
- TGI (HCC-2998 colon): 17.8 µM
- GI50 (HCT-116 colon): 9.23 µM
- TGI (HCT-116 colon): 24 µM
- GI50 (HCT-15 colon): 3.96 µM
- TGI (HCT-15 colon): 23.5 µM
- GI50 (HL-60(TB) leukemia): 2.66 µM
- TGI (HL-60(TB) leukemia): 21.3 µM
- GI50 (HOP-62 NSCLC): 10.4 µM
- TGI (HOP-62 NSCLC): 41.5 µM
- GI50 (HOP-92 NSCLC): 10.2 µM
- TGI (HOP-92 NSCLC): 32.6 µM
- GI50 (HS 578T breast): 12.1 µM
- TGI (HS 578T breast): 57.1 µM
- GI50 (HT29 colon): 23 µM
- TGI (HT29 colon): 65.8 µM
- GI50 (IGROV1 ovarian): 3.75 µM
- TGI (IGROV1 ovarian): 18 µM
- GI50 (K-562 leukemia): 2.96 µM
- TGI (K-562 leukemia): 15.9 µM
- GI50 (KM12 colon): 2.94 µM
- TGI (KM12 colon): 10 µM
- GI50 (LOX IMVI melanoma): 8.25 µM
- TGI (LOX IMVI melanoma): 21.9 µM
- GI50 (M14 melanoma): 5.01 µM
- TGI (M14 melanoma): 23.4 µM
- GI50 (MALME-3M melanoma): 3.45 µM
- TGI (MALME-3M melanoma): 13.4 µM
- GI50 (MCF7 breast): 15.8 µM
- TGI (MCF7 breast): > 100 µM
- GI50 (MDA-MB-231 breast): 4.06 µM
- TGI (MDA-MB-231 breast): 27.8 µM
- GI50 (MDA-MB-435): 3.27 µM
- TGI (MDA-MB-435): 14 µM
- GI50 (MOLT-4 leukemia): 2.75 µM
- TGI (MOLT-4 leukemia): 32.1 µM
- GI50 (NCI-H226 lung): 19 µM
- TGI (NCI-H226 lung): 49.5 µM
- GI50 (NCI-H23 lung): 10.9 µM
- TGI (NCI-H23 lung): 55.3 µM
- GI50 (NCI-H460 lung): 4.27 µM
- TGI (NCI-H460 lung): 15.8 µM
- GI50 (NCI-H522 lung): 8.99 µM
- TGI (NCI-H522 lung): 27.7 µM
- GI50 (NCI/ADR-RES ovarian): 4.4 µM
- TGI (NCI/ADR-RES ovarian): 67 µM
- GI50 (OVCAR-3 ovarian): 5.66 µM
- TGI (OVCAR-3 ovarian): 19 µM
- GI50 (OVCAR-4 ovarian): 8.64 µM
- TGI (OVCAR-4 ovarian): > 100 µM
- GI50 (OVCAR-5 ovarian): 22.7 µM
- TGI (OVCAR-5 ovarian): 78.3 µM
- GI50 (OVCAR-8 ovarian): 6.49 µM
- TGI (OVCAR-8 ovarian): 56.7 µM
- GI50 (PC-3 prostate): 4.41 µM
- TGI (PC-3 prostate): 68.2 µM
- GI50 (RPMI-8226 leukemia): 9.61 µM
- TGI (RPMI-8226 leukemia): > 100 µM
- GI50 (RXF 393 renal): 24.1 µM
- TGI (RXF 393 renal): > 100 µM
- GI50 (SF-268 CNS): 4.94 µM
- TGI (SF-268 CNS): 29.4 µM
- GI50 (SF-295 CNS): 2.13 µM
- TGI (SF-295 CNS): 6.29 µM
- GI50 (SF-539 CNS): 3.38 µM
- TGI (SF-539 CNS): 18.6 µM
- GI50 (SK-MEL-2 melanoma): 15.3 µM
- TGI (SK-MEL-2 melanoma): 46 µM
- GI50 (SK-MEL-28 melanoma): 14.1 µM
- TGI (SK-MEL-28 melanoma): > 100 µM
- GI50 (SK-MEL-5 melanoma): 3.11 µM
- TGI (SK-MEL-5 melanoma): 11.2 µM
- GI50 (SK-OV-3 ovarian): 17.2 µM
- TGI (SK-OV-3 ovarian): > 100 µM
- GI50 (SN12C renal): 10 µM
- TGI (SN12C renal): > 100 µM
- GI50 (SNB-19 CNS): 20.4 µM
- TGI (SNB-19 CNS): > 100 µM
- GI50 (SNB-75 CNS): 2.78 µM
- TGI (SNB-75 CNS): 35.9 µM
- GI50 (SR leukemia): 3.32 µM
- TGI (SR leukemia): 38.3 µM
- GI50 (SW-620 colon): 5.86 µM
- TGI (SW-620 colon): 19.5 µM
- GI50 (T-47D breast): 7.1 µM
- TGI (T-47D breast): 25.7 µM
- GI50 (TK-10 renal): 4.22 µM
- TGI (TK-10 renal): 42.3 µM
- GI50 (U251 CNS): 4.83 µM
- TGI (U251 CNS): 23.9 µM
- GI50 (UACC-257 melanoma): 4.86 µM
- TGI (UACC-257 melanoma): 34.3 µM
- GI50 (UACC-62 melanoma): 3.96 µM
- TGI (UACC-62 melanoma): 18 µM
- GI50 (UO-31 renal): 1.6 µM
- TGI (UO-31 renal): 9.49 µM

SMILES: N=C(N)c1ccc(-c2ccc(/C=C/c3ccccc3)s2)cc1
- GI50 (A498 renal): 11.9 µM
- TGI (A498 renal): 34.1 µM
- GI50 (ACHN renal): 1.67 µM
- TGI (ACHN renal): 3.03 µM
- GI50 (HL-60(TB) leukemia): 2.17 µM
- TGI (HL-60(TB) leukemia): 4.67 µM
- GI50 (HS 578T breast): 2.58 µM
- TGI (HS 578T breast): 7.32 µM
- GI50 (NCI-H226 lung): 6.82 µM
- TGI (NCI-H226 lung): 46 µM
- GI50 (OVCAR-5 ovarian): 1.47 µM
- TGI (OVCAR-5 ovarian): 2.87 µM
- GI50 (RXF 393 renal): 1.65 µM
- TGI (RXF 393 renal): 3.13 µM
- GI50 (SF-268 CNS): 4.28 µM
- TGI (SF-268 CNS): 39.7 µM
- GI50 (SK-MEL-28 melanoma): 1.65 µM
- TGI (SK-MEL-28 melanoma): 3.07 µM
- GI50 (SK-MEL-5 melanoma): 2.6 µM
- TGI (SK-MEL-5 melanoma): 7.12 µM
- GI50 (SK-OV-3 ovarian): 2.07 µM
- TGI (SK-OV-3 ovarian): 4.9 µM
